Measurements taken from patent US10106524B2, “2,3,4,5-tetrahydropyridin-6-amine and 3,4-dihydro-2H-pyrrol-5-amine compound inhibitors of beta-secretase” (Janssen Pharmaceutica NV, priority 2015, dated 2018).

How the values were obtained:
[1] = biological target: T1, recombinant BACE1 protein (Homo sapiens, UniProt P56817); experiment: BACE1 biochemical FRET based assay - Method 2; details: BACE1 0.04 μg/ml, 450 minutes, 20 μM substrate, pH 5.0; for IC50: read-out: Biochemical FRET based assay- Method 2 pIC50 (converted)
T1 construct: recombinant BACE1 protein in a final concentration of 1 μg/ml
T1 sequence (P56817 46-501): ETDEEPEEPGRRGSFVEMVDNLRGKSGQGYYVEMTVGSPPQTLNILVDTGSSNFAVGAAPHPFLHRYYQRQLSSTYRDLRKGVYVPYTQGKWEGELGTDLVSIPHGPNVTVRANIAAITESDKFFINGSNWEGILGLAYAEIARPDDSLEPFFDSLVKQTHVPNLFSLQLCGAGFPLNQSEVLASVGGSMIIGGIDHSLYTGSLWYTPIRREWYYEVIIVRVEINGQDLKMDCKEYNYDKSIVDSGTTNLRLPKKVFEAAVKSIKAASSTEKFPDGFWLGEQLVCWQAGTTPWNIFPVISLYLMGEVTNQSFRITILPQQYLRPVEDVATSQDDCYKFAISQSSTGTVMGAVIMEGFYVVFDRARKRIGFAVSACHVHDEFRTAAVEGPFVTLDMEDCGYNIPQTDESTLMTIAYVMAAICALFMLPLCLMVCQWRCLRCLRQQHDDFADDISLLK
Text: BACE1 Biochemical FRET Based Assay
(§1) This assay is a Fluorescence Resonance Energy Transfer Assay (FRET) based assay. The substrate for this assay is an APP derived 13 amino acids peptide that contains the ‘Swedish’ Lys-Met/Asn-Leu mutation of the amyloid precursor protein (APP) beta-secretase cleavage site. This substrate also contains two fluorophores: (7-methoxycoumarin-4-yl) acetic acid (Mca) is a fluorescent donor with excitation wavelength at 320 nm and emission at 405 nm and 2,4-Dinitrophenyl (Dnp) is a proprietary quencher acceptor. […] Upon cleavage by BACE1, the fluorophore Mca is separated from the quenching group Dnp, restoring the full fluorescence yield of the donor. The increase in fluorescence is linearly related to the rate of proteolysis.
Briefly in a 384-well format recombinant BACE1 protein in a final concentration of 0.04 μg/ml is incubated for 450 minutes at room temperature with 20 μM substrate in incubation buffer (50 mM Citrate buffer pH 5.0, 0.05% PEG) in the presence of compound or DMSO. Next the amount of proteolysis is directly measured by fluorescence measurement (excitation at 320 nm and emission at 405 nm) at different incubation times (0, 30, 60, 90, 120 and 450 min). For every experiment a time curve (every 30 min between 0 min and 120 min) is used to determine the time where we find the lowest basal signal of the high control. The signal at this time (Tx) is used to subtract from the signal at 450 min. Results are expressed in RFU, as difference between T450 and Tx.
(§2) A best-fit curve is fitted by a minimum sum of squares method to the plot of % Controlmin versus compound concentration. From this an IC50 value (inhibitory concentration causing 50% inhibition of activity) can be obtained.

[2] = biological target: T2, recombinant BACE2 protein (Homo sapiens, UniProt Q9Y5Z0); experiment: BACE2 biochemical FRET based assay; details: BACE2 0.4 μg/nil, 450 minutes, 10 μM substrate, pH 5.0; for IC50: read-out: Biochemical FRET based assay pIC50 (BACE2) (converted)
T2 construct: recombinant BACE2 protein in a final concentration of 0.4 μg/nil
T2 sequence (Q9Y5Z0 63-518): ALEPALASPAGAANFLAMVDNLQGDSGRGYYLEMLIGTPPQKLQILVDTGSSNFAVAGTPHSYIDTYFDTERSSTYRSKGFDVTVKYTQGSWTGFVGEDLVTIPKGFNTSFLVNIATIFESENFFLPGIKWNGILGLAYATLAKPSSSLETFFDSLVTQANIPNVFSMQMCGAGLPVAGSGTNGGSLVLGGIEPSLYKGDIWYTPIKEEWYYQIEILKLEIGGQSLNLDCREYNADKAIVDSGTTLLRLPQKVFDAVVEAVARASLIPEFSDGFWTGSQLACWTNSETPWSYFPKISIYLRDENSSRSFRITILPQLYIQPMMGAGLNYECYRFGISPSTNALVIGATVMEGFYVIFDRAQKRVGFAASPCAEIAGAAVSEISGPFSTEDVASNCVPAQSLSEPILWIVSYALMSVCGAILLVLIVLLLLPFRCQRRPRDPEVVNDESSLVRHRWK
Text: BACE2 Biochemical FRET Based Assay
as §1, with “assay” for “assay is an APP derived 13 amino acids peptide that”, “the beta-secretase,” for “BACE1,”
Briefly in a 384-well format recombinant BACE2 protein in a final concentration of […] is incubated for 450 minutes at room temperature with 10 μM substrate in incubation buffer (50 mM Citrate buffer pH 5.0, 0.05% PEG, no DMSO) in the absence or presence of compound. Next the amount of proteolysis is directly measured by fluorescence measurement at T=0 and T=450 (excitation at 320 nm and emission at 405 nm). Results are expressed in RFU (Relative Fluorescence Units), as difference between T450 and T0.
as §2

[3] = tested on: Abeta 1-42 produced and secreted by SKNBE2 cells expressing hAPP695; experiment: Cellular αLisa assay in SKNBE2 cells - Abeta 42; assay type: cell-based, human; details: incubated for 18 hours; for IC50: Homo sapiens, read-out: Cellular αLisa assay in SKNBE2 cells Abeta 42 pIC50 (converted)
Method: Cellular αLisa Assay in SKNBE2 Cells
In two αLisa assays the levels of Abeta total and Abeta 1-42 produced and secreted into the medium of human neuroblastoma SKNBE2 cells are quantified. The assay is based on the human neuroblastoma SKNBE2 expressing the wild type Amyloid Precursor Protein (hAPP695). The compounds are diluted and added to these cells, incubated for 18 hours and then measurements of Abeta 1-42 and Abeta total are taken. Abeta total and Abeta 1-42 are measured by sandwich αLisa. αLisa is a sandwich assay using biotinylated antibody AbN/25 attached to streptavidin coated beads and antibody Ab4G8 or cAb42/26 conjugated acceptor beads for the detection of Abeta total and Abeta 1-42 respectively. In the presence of Abeta total or Abeta 1-42, the beads come into close proximity. The excitation of the donor beads provokes the release of singlet oxygen molecules that trigger a cascade of energy transfer in the acceptor beads, resulting in light emission. Light emission is measured after 1 hour incubation (excitation at […] and emission at 615 nm).
as §2

Row | Compound | IC50 [1] | IC50 [2] | IC50 [3] | Biochemical FRET based assay pIC50 (BACE2) [2] | Biochemical FRET based assay- Method 2 pIC50 [1] | Cellular αLisa assay in SKNBE2 cells Abeta 42 pIC50 [3]
1 | C[C@]1(c2cc(Nc3ncccc3C#N)ccc2F)N=C(N)C[C@H]1C(F)(F)F [Compound 38, 2-[3-[(2S,3R)-5-amino-2-methyl-3-(trifluoromethyl)-3,4-dihydropyrrol-2-yl]-4-fluoro-anilino]pyridine-3-carbonitrile] | > 10 µM |  |  |  |  | 
2 | C[C@@]1(c2cc(NC(=O)c3ccc(C#N)cn3)ccc2F)N=C(N)C[C@@H]1C(F)(F)F [Compound 25, N-[3-[(2R,3S)-5-amino-2-methyl-3-(trifluoromethyl)-3,4-dihydropyrrol-2-yl]-4-fluoro-phenyl]-5-cyano-pyridine-2-carboxamide] | 0.182 µM | 1.07 µM | 0.0603 µM |  |  | 
3 | CC1(c2cc(Nc3ncccc3C#N)ccc2F)N=C(N)CC1C(F)(F)F (racemic) [Compound 22, (±)-2-[3-[(2S*,3R*)-5-amino-2-methyl-3-(trifluoromethyl)-3,4-dihydropyrrol-2-1]-4-fluoro-anilino]pyridine-3-carbonitrile] | 3.72 µM | ≥ 10 µM | 0.776 µM |  |  | 
4 | COCCOc1cnc(C(=O)Nc2ccc(F)c([C@]3(C)N=C(N)C[C@@H]3C(F)(F)F)c2)cn1 [Compound 29, N-[3-[(2R,3S)-5-amino-2-methyl-3-(trifluoromethyl)-3,4-dihydropyrrol-2-yl]-4-fluoro-phenyl]-5-(2-methoxyethoxy)pyrazine-2-carboxamide] | 0.447 µM | > 20 µM | 0.151 µM |  |  | 
5 | C[C@]1(c2cc(NC(=O)c3cnc(OCC(F)(F)F)cn3)ccc2F)N=C(N)C[C@H]1C(F)(F)F [Compound 32, N-[3-[(2S,3R)-5-amino-2-methyl-3-(trifluoromethyl)-3,4-dihydropyrrol-2-yl]-4-fluoro-phenyl]-5-(2,2,2-trifluoroethoxy)pyrazine-2-carboxamide] | > 10 µM | > 20 µM | > 8.91 µM |  |  | 
6 | C[C@@]1(c2cc(NC(=O)c3ccc(Br)cn3)ccc2F)N=C(N)C[C@@H]1C(F)(F)F [Compound 33, N-[3-[(2R,3S)-5-amino-2-methyl-3-(trifluoromethyl)-3,4-dihydropyrrol-2-yl]-4-fluoro-phenyl]-5-bromo-pyridine-2-carboxamide] | 0.229 µM | 0.513 µM | 0.0363 µM |  |  | 
7 | (±)-N-[3-[(2S*,3R*)-5-amino-2-methyl-3-(trifluoromethyl)-3,4-dihydropyrrol-2-yl]-4-fluoro-phenyl]-5-(2,2,2-trifluoroethoxy)pyrazine-2-carboxamide [Compound 24] |  |  |  | <5 | 6.10 | 6.38
8 | Cc1nc(C(=O)Nc2ccc(F)c([C@@]3(C)N=C(N)C[C@H]3C(F)(F)F)c2)co1 [Compound 36, N-[3-[(2S,3R)-5-amino-2-methyl-3-(trifluoromethyl)-3,4-dihydropyrrol-2-yl]-4-fluoro-phenyl]-2-methyl-oxazole-4-carboxamide] | 1.02 µM |  |  |  |  | 
9 | COc1cnc(C(=O)Nc2ccc(F)c([C@@]3(C)N=C(N)C[C@H]3C(F)(F)F)c2)cn1 [Compound 34, N-[3-[(2S,3R)-5-amino-2-methyl-3-(trifluoromethyl)-3,4-dihydropyrrol-2-yl]-4-fluoro-phenyl]-5-methoxy-pyrazine-2-carboxamide] | > 10 µM |  |  |  |  | 
10 | COc1cnc(C(=O)Nc2ccc(F)c([C@]3(C)N=C(N)C[C@@H]3C(F)(F)F)c2)cn1 [Compound 27, N-[3-[(2R,3S)-5-amino-2-methyl-3-(trifluoromethyl)-3,4-dihydropyrrol-2-yl]-4-fluoro-phenyl]-5-methoxy-pyrazine-2-carboxamide] | 0.389 µM | 5.89 µM | 0.1 µM |  |  | 
11 | COc1cccnc1Nc1ccc(F)c([C@]2(C)N=C(N)C[C@@H]2C(F)(F)F)c1 [Compound 28, N-[3-[(2R,3S)-5-amino-2-methyl-3-(trifluoromethyl)-3,4-dihydropyrrol-2-yl]-4-fluoro-phenyl]-3-methoxy-pyridin-2-amine] | 1.2 µM | 0.617 µM | 0.347 µM |  |  | 
12 | COCCOc1cnc(C(=O)Nc2ccc(F)c([C@@]3(C)N=C(N)C[C@H]3C(F)(F)F)c2)cn1 [Compound 30, N-[3-[(2S,3R)-5-amino-2-methyl-3-(trifluoromethyl)-3,4-dihydropyrrol-2-yl]-4-fluoro-phenyl]-5-(2-methoxyethoxy)pyrazine-2-carboxamide] | > 10 µM | > 20 µM | > 8.91 µM |  |  | 
13 | C[C@]1(c2cc(NC(=O)c3ccc(C#N)cn3)ccc2F)N=C(N)C[C@H]1C(F)(F)F [Compound 26, N-[3-[(2S,3R)-5-amino-2-methyl-3-(trifluoromethyl)-3,4-dihydropyrrol-2-yl]-4-fluoro-phenyl]-5-cyano-pyridine-2-carboxamide] | > 10 µM | > 10 µM | > 8.91 µM |  |  | 
14 | C[C@@]1(c2cc(Nc3ncccc3C#N)ccc2F)N=C(N)C[C@@H]1C(F)(F)F [Compound 39, 2-[3-[(2R,3S)-5-amino-2-methyl-3-(trifluoromethyl)-3,4-dihydropyrrol-2-yl]-4-fluoro-anilino]pyridine-3-carbonitrile] | 2.95 µM |  |  |  |  | 
15 | Cc1nc(C(=O)Nc2ccc(F)c([C@]3(C)N=C(N)C[C@@H]3C(F)(F)F)c2)co1 [Compound 35, N-[3-[(2R,3S)-5-amino-2-methyl-3-(trifluoromethyl)-3,4-dihydropyrrol-2-yl]-4-fluoro-phenyl]-2-methyl-oxazole-4-carboxamide] | > 10 µM |  |  |  |  | 
16 | COc1cccnc1Nc1ccc(F)c([C@@]2(C)N=C(N)C[C@H]2C(F)(F)F)c1 [Compound 37, N-[3-[(2S,3R)-5-amino-2-methyl-3-(trifluoromethyl)-3,4-dihydropyrrol-2-yl]-4-fluoro-phenyl]-3-methoxy-pyridin-2-amine] | > 10 µM |  |  |  |  | 
17 | C[C@]1(c2cc(NC(=O)c3ccc(Br)cn3)ccc2F)N=C(N)C[C@H]1C(F)(F)F [Compound 41, N-[3-[(2S,3R)-5-amino-2-methyl-3-(trifluoromethyl)-3,4-dihydropyrrol-2-yl]-4-fluoro-phenyl]-5-bromo-pyridine-2-carboxamide] | > 10 µM |  |  |  |  | 
